This is an account of results in patent US12558428B2, “Heterobifunctional compounds and their use in treating disease” (Halda Therapeutics OpCo, Inc., priority 2024, dated 2026).

In experiment [1] the target is T1, BRD4-BD2 (Homo sapiens, UniProt O60885).
T1 construct: made in house; host or cells: T7 phage grown in E. coli host derived from BL21
The experiment in a line: Binding affinity to BRD4-BD2 (bromoKdELECT assay). How it is done:
Exemplary compounds were tested for ability to bind to BRD4-BD2.
Compounds were tested using a bromoKdELECT assay. T7 phage strains displaying bromodomains were grown in parallel in 24-well blocks in an E. coli host derived from the BL21 strain. E. coli were grown to log-phase and infected with T7 phage from a frozen stock (multiplicity of infection=0.4) and incubated with shaking at 32° C. until lysis (90-150 minutes). The lysates were centrifuged (5,000×g) and filtered ([…]) to remove cell debris. Streptavidin-coated magnetic beads were treated with biotinylated small molecule or acetylated peptide ligands for 30 minutes at room temperature to generate affinity resins for bromodomain assays. The liganded beads were blocked with excess biotin and washed with blocking buffer (SeaBlock (Pierce), 1% BSA, 0.05% Tween 20, 1 mM DTT) to remove unbound ligand and to reduce nonspecific phage binding. Binding reactions were assembled by combining bromodomains, liganded affinity beads, and test compounds in 1× binding buffer (17% SeaBlock, 0.33×PBS, 0.04% Tween 20, 0.02% BSA, 0.004% Sodium azide, 7.4 mM DTT). Test compounds were prepared as 1000× stocks in 100% DMSO. Kds were determined using an 11-point 3-fold compound dilution series with one DMSO control point. […] The bromodomain concentration in the eluates was measured by qPCR.

The test system of experiment [2] is T-Rex 293 cells having increased expression of estrogen receptor alpha protein. The experiment in a line: Cellular growth inhibition assay, T-Rex 293 cells, (+) doxycycline. The experiment is classed as cell-based. The settings on record: T-REx-293, 72 h, T-Rex 293 cells with doxycycline-induced ERα expression, 72 hours, CellTiter-Glo 2.0; read-out: (+) Dox TRex ERa (GI50). The essentials:
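Viability read-out was CellTiter-Glo 2.0 luminescence after 72 h compound exposure, normalized to zero luminescence and fitted by four-parameter regression to give GI50. Cells were an ERα-inducible T-Rex 293 clone cultured with or without 3 ng/mL doxycycline in charcoal-stripped, phenol red-free medium.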
For orientation: Cellular ATP, detected with luciferase, serves as a proxy for viable cell number.

Experiment [3] concerns the target T2, BRD4-BD1 (Homo sapiens, UniProt O60885).
T2 construct: made in house; host or cells: T7 phage grown in E. coli host derived from BL21
The experiment can be described thus: Binding affinity to BRD4-BD1 (bromoKdELECT assay). The procedure:
Exemplary compounds were tested for ability to bind to BRD4-BD 1.
Compounds were tested using a bromoKdELECT assay. T7 phage strains displaying bromodomains were grown in parallel in 24-well blocks in an E. coli host derived from the BL21 strain. E. coli were grown to log-phase and infected with T7 phage from a frozen stock (multiplicity of infection=0.4) and incubated with shaking at 32° C. until lysis (90-150 minutes). The lysates were centrifuged (5,000×g) and filtered ([…]) to remove cell debris. […] The liganded beads were blocked with excess biotin and washed with blocking buffer (SeaBlock (Pierce), 1% BSA, 0.05% Tween 20, 1 mM DTT) to remove unbound ligand and to reduce nonspecific phage binding. […] Test compounds were prepared as 1000× stocks in 100% DMSO. Kds were determined using an 11-point 3-fold compound dilution series with one DMSO control point. […] The compounds were then diluted directly into the assays such that the final concentration of DMSO was 0.09%. All reactions performed in polypropylene 384-well plates. Each was a final volume of 0.02 ml. […] The bromodomain concentration in the eluates was measured by qPCR.

SMILES strings stand for the structures. pKd: −log10 of the molar value. Bounds are passed on as bounds.

In the case of `CCN(CCCCCCCCNC(=O)C[C@@H]1N=C(c2ccc(Cl)cc2)c2c(sc(C)c2C)-n2c(C)nnc21)CCOc1ccc(C(=O)c2c(-c3ccc(O)cc3)sc3cc(O)ccc23)cc1` [I-2, (S)-2-(4-(4-chlorophenyl)-2,3,9-trimethyl-6H-thieno[3,2-f][1,2,4]triazolo[4,3-a][1,4]diazepin-6-yl)-N-(8-(ethyl(2-(4-(6-hydroxy-2-(4-hydroxyphenyl)benzo[b]thiophene-3-carbonyl)phenoxy)ethyl)amino)octyl)acetamide], the pKd was over 7.30 in experiment [1] and 6.30 to 7.30 in experiment [3]. For the same molecule, the GI50 in experiment [2] fell in the range of 0.05 to 0.5 µM.

Take `CCN(CCOCCOCCNC(=O)C[C@@H]1N=C(c2ccc(Cl)cc2)c2c(sc(C)c2C)-n2c(C)nnc21)CCOc1ccc(C(=O)c2c(-c3ccc(O)cc3)sc3cc(O)ccc23)cc1` [I-3, (S)-2-(4-(4-chlorophenyl)-2,3,9-trimethyl-6H-thieno[3,2-f][1,2,4]triazolo[4,3-a][1,4]diazepin-6-yl)-N-(2-(2-(2-(ethyl(2-(4-(6-hydroxy-2-(4-hydroxyphenyl)benzo[b]thiophene-3-carbonyl)phenoxy)ethyl)amino)ethoxy)ethoxy)ethyl) acetamide]: the pKd in experiment [1] and in experiment [3] was over 7.30 throughout. In addition, in experiment [2], the GI50 was 0.05 to 0.5 µM.

Broadly, the pKd is the Kd on a negative log10 scale, so that one unit is a factor of ten. By GI50 is commonly meant the concentration giving 50% growth inhibition.
